Among the data in US20100331348A1, “TROPANE DERIVATIVES USEFUL AS PESTICIDES” (SYNGENTA CROP PROTECTION, INC., priority 2007, published 2010) are pest or weed control values, retold here.

SMILES strings stand for the structures. Read-outs that look alike come from different tables or passages of the source.

Test [1] has as its system Heliothis virescens. In words: Heliothis virescens (Tobacco budworm) egg test on artificial diet. As to conditions: 96 h, read-out: control of Heliothis virescens.
The test system of test [2] is Pyricularia oryzae. Nature of the test: whole plant or invertebrate. Type of test: in vivo. The note with it: foliar, 96 h.
The subject of test [3] is Puccinia recondita f.sp. tritici. Nature of the test: Puccinia recondita f.sp. tritici (wheat brown rust) leaf disk assay. It is filed as in vivo. The note with it: foliar, 216 h, preventive, nine days after inoculation, read-out: control of fungal infection, Puccinia recondita f.sp. tritici.
The test system of test [4] is Aedes aegypti. Nature of the test: Aedes aegypti (Yellow fever mosquito) larvae test. It is filed as in vivo. As to conditions: 48 h.
In test [5] the test system is Plutella xylostella. Nature of the test: Plutella xylostella (Diamond back moth) artificial diet test. The note with it: 120 h, read-out: control of Plutella xylostella.
The test system of test [6] is Plasmopara viticola. In words: Plasmopara viticola (downy mildew of grapevine) leaf disk assay. Type of test: in vivo. As to conditions: foliar, 168 h, preventive, seven days after inoculation, read-out: control of fungal infection, Plasmopara viticola.
In test [7] the test system is Tetranychus urticae. The note with it: foliar, 192 h, read-out: control of Tetranychus urticae.
Test [8] has as its system Erysiphe graminis f.sp. tritici. Nature of the test: Erysiphe graminis f.sp. tritici (wheat powdery mildew) leaf disk assay. Type of test: in vivo. The note with it: Blumeria graminis, foliar, 96 h, preventive, four days after inoculation, read-out: control of fungal infection, Erysiphe graminis fsp. tritici.
Test [9] has as its system Phytophthora infestans. Nature of the test: whole plant or invertebrate. Type of test: in vivo. As to conditions: foliar, 96 h, read-out: control of fungal infection, Phytophthora infestans.
Where [10] appears, read: read-out: control of fungal infection, Pyricularia oryzae (at least 80% list).
Where [11] appears, read: read-out: control of fungal infection, Pyricularia oryzae (at least 60% list).

Regarding `CCc1ncnc(N2C3CCC2CC(=CCOc2cccc(F)c2)C3)c1Cl` [Example 3.12], the pest or weed control at 200 ppm in [1], in test [2] (setting [10]), in test [3] and in [5] was not below 80% in each case. Also, the pest or weed control at 2 ppm in test [4] is not below 80%.

Turning to `FC(F)(F)c1ccc(CON=C2CC3CCC(C2)N3c2ncnc3sccc23)cc1` [Example 5.160], the pest or weed control at 200 ppm in test [6], in test [7], in test [8], in test [2] (setting [10]), in [3] and in test [9] was not below 80% in each case. In [5], the pest or weed control at 200 ppm is not below 80%. The compound also yielded a pest or weed control at 2 ppm in test [4] not below 80%.

Turning to `Fc1cc(Cl)cnc1OC1C[C@H]2CC[C@@H](C1)N2c1ncnc2sccc12` (stereo partly drawn) [Example 1.72], the pest or weed control at 200 ppm is not below 80% in [1]; not below 80% in test [8]; not below 60% in test [2] (setting [11]); not below 80% in [2] (setting [10]); not below 80% in test [3].

Consider `CCCC1COC2(CC3CCC(C2)N3c2ncnc3sccc23)O1` (stereo not drawn) [Example 6.10], for which the pest or weed control at 200 ppm in test [6], in [7], in test [8], in test [2] (setting [10]), in test [3] and in test [5] was not below 80% in each case. The compound further had a pest or weed control at 2 ppm in test [4] not below 80%.

Regarding `CCc1ncnc(N2C3CCC2CC(=NOCc2cc(F)ccc2F)C3)c1Cl` [Example 5.73], the pest or weed control at 200 ppm in test [1] is not below 80%; in [8], not below 80%; in test [2] (setting [11]), not below 60%; in [3] it was not below 80%; in [5] it was not below 80%. Moreover, in [4], the pest or weed control at 2 ppm was not below 80%.

For the compound `CCc1ncnc(N2C3CCC2CC(=CCOc2ccc(Cl)c(OC)c2)C3)c1Cl` [Example 3.13], the pest or weed control at 200 ppm in [1], in test [2] (setting [10]) and in test [3] was not below 80% in each case. The same compound registered a pest or weed control at 2 ppm in test [4] not below 80%.

`CCc1ncnc(N2C3CCC2CC(=NOCc2ccc(C#N)cc2)C3)c1Cl` [Example 5.14]: the pest or weed control at 200 ppm in test [1], in test [8], in [2] (setting [10]), in test [3] and in test [5] was not below 80% in each case.

For `CCc1ncnc(N2C3CCC2CC(=Cc2ccccc2)C3)c1Cl` [Example 3.6], the pest or weed control at 200 ppm is not below 80% in test [7], not below 60% in [2] (setting [11]), not below 80% in [9] and not below 80% in test [5]. Further, the pest or weed control at 2 ppm in test [4] is not below 80%.

As to `CCc1ncnc(N2C3CCC2CC(=NOCc2ccccc2)C3)c1Cl` [Example 5.5], the pest or weed control at 200 ppm in test [1], in test [8], in test [3], in test [9] and in [5] was not below 80% throughout. Besides, the pest or weed control at 2 ppm in [4] is not below 80%.

As to `Cn1nc(C(F)(F)F)cc1C(=O)N1[C@@H]2CC[C@H]1CC(Oc1ccc(C(F)(F)F)cn1)C2` (stereo partly drawn) [Example 2.222], the pest or weed control at 200 ppm in test [1] and in test [8] was not below 80% each time.

On to `FC(F)(F)Oc1ccc(CON=C2CC3CCC(C2)N3c2ncnc3sccc23)cc1` [Example 5.210], for which the pest or weed control at 200 ppm in test [7], in test [8], in [3], in [9] and in test [5] was not below 80% in each case. The pest or weed control at 2 ppm in [4] is not below 80%.

On to `COCc1ncnc(N2[C@@H]3CC[C@H]2CC(Oc2ccc(C(F)(F)F)cn2)C3)c1OC` (stereo partly drawn) [Example 2.167], for which the pest or weed control at 200 ppm in test [1] and in test [8] was not below 80% each time.

On to `CCc1ccc(CON=C2CC3CCC(C2)N3c2ncnc3sccc23)cc1` [Example 5.151], for which the pest or weed control at 200 ppm in test [6], in test [7], in test [8], in test [2] (setting [10]), in test [3] and in test [9] was not below 80% throughout. Further, the pest or weed control at 2 ppm in test [4] is not below 80%.

Turning to `FC(F)(F)c1ccc(OC2C[C@H]3CC[C@@H](C2)N3c2ncnc3ccccc23)nc1` (stereo partly drawn) [Example 2.85], the pest or weed control at 200 ppm in test [1] is not below 80%; in [7] it was not below 80%; in test [8], not below 80%; in [2] (setting [11]), not below 60%. Moreover, the pest or weed control at 2 ppm in test [4] was not below 80%.

`CCc1ncnc(N2C3CCC2CC(=NOCc2ccc(C(C)C)cc2)C3)c1Cl` [Example 5.20]: the pest or weed control at 200 ppm in test [6], in [7], in test [8] and in test [3] was not below 80% in each case.

With `C#CCN(CC#C)C1C[C@H]2CC[C@@H](C1)N2c1ncnc(CC)c1Cl` (stereo partly drawn) [Example 4.19], the pest or weed control at 200 ppm in test [1] and in test [3] was not below 80% in each case.

For `FC(F)(F)c1ccc(OC2C[C@H]3CC[C@@H](C2)N3c2ccnc3c(Cl)cccc23)nc1` (stereo partly drawn) [Example 2.206], the values for the pest or weed control at 200 ppm in [6], in [7] and in test [2] (setting [11]) were not below 80%, not below 80% and not below 60%, respectively.

In the case of `CCc1ncnc(N2C3CCC2CC(Cc2ccc(C)cc2)C3)c1Cl` (stereo not drawn) [Example 7.26], the pest or weed control at 200 ppm in [1] and in test [5] was not below 80% each time. In [4], this compound had a pest or weed control at 2 ppm not below 80%.

With `Fc1ccc(F)c(CON=C2CC3CCC(C2)N3c2ncnc3sccc23)c1F` [Example 5.228], the pest or weed control at 200 ppm was not below 80% in test [6]; not below 80% in [7]; not below 80% in [8]; not below 60% in test [2] (setting [11]); not below 80% in test [3]; not below 80% in test [9]. In addition, in test [5], the pest or weed control at 200 ppm is not below 80%. For the same compound, the pest or weed control at 2 ppm in test [4] was not below 80%.

On to `N#Cc1ccc(CON=C2CC3CCC(C2)N3c2ncnc3sccc23)cc1` [Example 5.163], for which the pest or weed control at 200 ppm in test [1], in test [8], in test [2] (setting [10]), in test [3], in [9] and in test [5] was not below 80% throughout. In test [4], this compound came in with a pest or weed control at 2 ppm not below 80%.

Take `Cc1csc2ncnc(N3[C@@H]4CC[C@H]3CC(Oc3ccc(C(F)(F)F)cn3)C4)c12` (stereo partly drawn) [Example 2.71]: the pest or weed control at 200 ppm in test [6] was not below 80%; in test [7] it was not below 80%; in test [8] it was not below 80%; in test [2] (setting [11]), not below 60%. The compound further showed a pest or weed control at 2 ppm in [4] not below 80%.

Turning to `CCc1ncnc(N2C3CCC2CC(=NOCc2cc(F)c(F)cc2F)C3)c1Cl` [Example 5.87], the pest or weed control at 200 ppm in test [1], in test [8], in [3] and in [5] was not below 80% in each case. The same compound gave a pest or weed control at 2 ppm in [4] not below 80%.

In the case of `CCCCC1COC2(CC3CCC(C2)N3c2ncnc3sccc23)O1` (stereo not drawn) [Example 6.3], the pest or weed control at 200 ppm in test [1], in test [6], in [8], in [9] and in test [5] was not below 80% in each case. For the same compound, in [4], the pest or weed control at 2 ppm is not below 80%.

Turning to `Cc1ccc(OCC=C2CC3CCC(C2)N3c2ncnc3sccc23)cc1` [Example 3.30], the pest or weed control at 200 ppm in test [1], in test [6], in test [2] (setting [10]), in test [3] and in test [9] was not below 80% in each case. The pest or weed control at 2 ppm in [4] was not below 80%.

Turning to `CCC(=O)c1cc(F)c(OC2C[C@H]3CC[C@@H](C2)N3c2ncnc3sccc23)c(F)c1` (stereo partly drawn) [Example 2.66], the pest or weed control at 200 ppm in test [6], in test [7], in [8], in [9] and in test [5] was not below 80% each time. For the same compound, in test [4], the pest or weed control at 2 ppm was not below 80%.

`Cc1ccc(CC2CC3CCC(C2)N3c2ncnc3sccc23)cc1` (stereo not drawn) [Example 7.8]: the pest or weed control at 200 ppm is not below 80% in test [1]; not below 80% in test [6]; not below 60% in test [2] (setting [11]); not below 80% in test [2] (setting [10]); not below 80% in test [3]; not below 80% in [5]. The same compound had a pest or weed control at 2 ppm in test [4] not below 80%.
